Results published in publication PMC4912077 (PLoS ONE, 2016).

Tests used:
NMDA receptor = experiment: NMDA receptor-mediated fEPSP (NMDAR-fEPSP) in CA1 of hippocampal slices; assay type: cell-based, rat; settings: 10 μM
Description: (§1) Male Wistar rats (Crl:Wi; Charles River, UK) aged 9–10 wk were sacrificed by neck vertebral dislocation (schedule 1 method) according to the United Kingdom (Scientific Procedures) Act of 1986. […] The brain was cut parasagittally into 400 μm sections and hippocampal slices were removed, stored and placed in a submerged recording chamber at 28–30°C. Recordings of synaptic activity were made, analyzed and presented as described. A bipolar electrode was used to deliver stimuli (0.03 Hz) to the Schaffer collateral pathway to enable recording of field excitatory synaptic potentials (fEPSPs) using a glass microelectrode positioned in the stratum radiatum of area CA1. […] After 30 min of stable control responses, 1 and 10 μM solutions of the individual compounds were added to the perfusate for 3–12 h while recording the amplitude and area of the NMDAR-fEPSP on-line using WinLTP [31]. Single exponential curves were fitted to the graphs and curves extrapolated to show likely half-times and minimum plateau responses achieved with each concentration of the compounds. Raw data for all fEPSP experiments are provided as supporting information (S2, S3 and S4 Files).

AMPA receptor = experiment: AMPA receptor-mediated fEPSP in hippocampal slices (2-MXP selectivity); assay type: cell-based, rat
Description: as §1
To examine the specificity of DPH analogues, 2-MXP was superfused at 50 (n = 2) and 100 μM (n = 1) in the absence of AMPA and GABA receptor antagonists (Fig 3C).

NET = NET (Homo sapiens, UniProt P23975); experiment: NIMH PDSP radioligand binding, NET
Description: Radioligands and concentrations used for additional 45 CNS receptor binding assays are listed as supporting information (S1 Table). This work was performed by the National Institute of Mental Health Psychoactive Drug Screening Program (NIMH PDSP) as described previously.[26] Briefly target compounds were dissolved in DMSO and subjected to a primary screen at 10,000 nM concentration. […] Additional experimental details are available in the NIMH PDSP assay protocol book.

NET, sequence (P23975 whole entry): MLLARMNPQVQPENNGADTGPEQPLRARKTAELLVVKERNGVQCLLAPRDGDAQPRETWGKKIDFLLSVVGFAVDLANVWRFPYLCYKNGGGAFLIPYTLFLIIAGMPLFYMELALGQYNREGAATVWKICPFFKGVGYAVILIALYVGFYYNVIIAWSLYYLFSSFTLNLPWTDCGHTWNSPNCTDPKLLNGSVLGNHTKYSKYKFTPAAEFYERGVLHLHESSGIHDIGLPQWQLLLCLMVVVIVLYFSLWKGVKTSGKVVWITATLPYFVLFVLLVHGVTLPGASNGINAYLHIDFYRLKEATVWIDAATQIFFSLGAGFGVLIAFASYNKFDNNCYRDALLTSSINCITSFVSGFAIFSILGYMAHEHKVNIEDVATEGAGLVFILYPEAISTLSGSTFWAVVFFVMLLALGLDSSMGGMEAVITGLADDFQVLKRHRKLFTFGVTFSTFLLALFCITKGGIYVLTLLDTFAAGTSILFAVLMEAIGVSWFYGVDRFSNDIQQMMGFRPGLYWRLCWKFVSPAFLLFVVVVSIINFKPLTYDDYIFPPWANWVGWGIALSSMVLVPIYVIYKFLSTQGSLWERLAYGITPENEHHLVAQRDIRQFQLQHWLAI

## COc1ccccc1C(Cc1ccccc1)N1CCCCC1 (stereo not shown) [2-MXP, 2-methoxydiphenidine]
NMDA receptor
  effect on NMDAR-fEPSP: abolished
AMPA receptor; 50 and 100 μM, without AMPA and GABA receptor antagonists
  effect on AMPA receptor-mediated fEPSP: No reduction of the AMPA receptor-mediated fEPSP was seen
AMPA receptor; hippocampal slices
  potency as antagonist of NMDAR relative to AMPA receptor responses: > 50 times

## c1ccc(CC(c2ccccc2)N2CCCCC2)cc1 (stereo not shown) [DPH, diphenidine]
NET
  Ki: 2810 nM
